Data set [1] concerns the target Cannabinoid receptor 1 (Rattus norvegicus, UniProt P20272). Briefly: Binding affinity to rat CB1 receptor.
In data set [2] the target is Cannabinoid receptor 1 (Mus musculus, UniProt P47746). Briefly: Partial agonist activity at mouse CB1 receptor by vas deferens assay.
Another data set concerns Neutrophil. Briefly: Inhibition of human neutrophil migration incubated for 30 mins prior to fMLP challenge by boyden chamber assay. Type of data set: functional, cell-based.
For data set [3], the system named is Fibroblast. Kind of data set: Reduction of lecithin content in Niemann-Pick patient fibroblast at 30 uM. Type of data set: functional, Homo sapiens. Further details: scale not given: the % may be the effect or the level left.
Data set [4] deals with Fibroblast. Briefly: Reduction of sphingomyelin content in Niemann-Pick patient fibroblast at 30 uM. Type of data set: functional, Homo sapiens. Further details: scale not given: the % may be the effect or the level left.
Data set [5] in a line: Reduction of lecithin content in human fibroblast at 30 uM. Further details: scale not given: the % may be the effect or the level left. Type of data set: ADME, cell-based.
Data set [6] can be described thus: Reduction of sphingomyelin content in human fibroblast at 30 uM. Type of data set: ADME, cell-based. Details: scale not given: the % may be the effect or the level left.
In data set [7] the test system is Mus musculus. Briefly: Reduction of iNOS protein expression in C57BL/6J mouse hippocampus inoculated with human amyloid beta (1 to 42) at 10 ug/kg, ip after 10 days by immunofluorescence analysis. Type of data set: functional. Further details: scale not given: the % may be the effect or the level left.
Data set [8] relates to Mus musculus. Kind of data set: Reduction of IL-1beta protein expression in C57BL/6J mouse hippocampus inoculated with human amyloid beta (1 to 42) at 10 ug/kg, ip after 10 days by immunofluorescence analysis. Type of data set: functional. Further details: scale not given: the % may be the effect or the level left.
In data set [9] the test system is Mus musculus. Kind of data set: Reduction of NO release in C57BL/6J mouse hippocampus inoculated with human amyloid beta (1 to 42) at 10 ug/kg, ip after 7 days. Type of data set: functional. Details: scale not given: the % may be the effect or the level left.
Data set [10] relates to Mus musculus. Kind of data set: Reduction of IL-1beta release in C57BL/6J mouse hippocampus inoculated with human amyloid beta (1 to 42) at 10 ug/kg, ip after 10 days by ELISA. Type of data set: functional. Details: scale not given: the % may be the effect or the level left.
The test system of data set [11] is Mus musculus. Kind of data set: Antiinflammatory activity in Swiss OF1 mouse assessed as reduction of LPS-induced TNF-alpha expression at 10 mg/kg, ip by immunoblotting analysis. Further details: scale not given: the % may be the effect or the level left. Type of data set: functional. To be noted: route intraperitoneal.
Data set [12] in a line: Antiinflammatory activity in human glial cells assessed as reduction of LPS-induced iNOS expression at 1 uM. Type of data set: functional. Details: scale not given: the % may be the effect or the level left.
A short description of data set [13]: Antiinflammatory activity in human glial cells assessed as reduction of LPS-induced nitrate expression at 1 uM. Further details: scale not given: the % may be the effect or the level left. Type of data set: functional.
Data set [14] in a line: Antiinflammatory activity in human glial cells assessed as reduction of LPS-induced S100B expression at 1 uM. Type of data set: functional. Further details: scale not given: the % may be the effect or the level left.
In a further data set the test system is HEK293. Kind of data set: Induction of rat TRPV3 expressed in HEK293 cells assessed as increase of Ca2+ level relative to ionomycin. Type of data set: cell-based.
A short description of data set [15]: Induction of rat TRPV3 expressed in HEK293 cells assessed as increase of Ca2+ level. Type of data set: cell-based.

pEC50, pIC50, pKi: −log10 of the molar value. Some results are limits rather than exact numbers.

Sequence of Cannabinoid receptor 1 (Mus musculus, UniProt P47746) (P47746 whole entry): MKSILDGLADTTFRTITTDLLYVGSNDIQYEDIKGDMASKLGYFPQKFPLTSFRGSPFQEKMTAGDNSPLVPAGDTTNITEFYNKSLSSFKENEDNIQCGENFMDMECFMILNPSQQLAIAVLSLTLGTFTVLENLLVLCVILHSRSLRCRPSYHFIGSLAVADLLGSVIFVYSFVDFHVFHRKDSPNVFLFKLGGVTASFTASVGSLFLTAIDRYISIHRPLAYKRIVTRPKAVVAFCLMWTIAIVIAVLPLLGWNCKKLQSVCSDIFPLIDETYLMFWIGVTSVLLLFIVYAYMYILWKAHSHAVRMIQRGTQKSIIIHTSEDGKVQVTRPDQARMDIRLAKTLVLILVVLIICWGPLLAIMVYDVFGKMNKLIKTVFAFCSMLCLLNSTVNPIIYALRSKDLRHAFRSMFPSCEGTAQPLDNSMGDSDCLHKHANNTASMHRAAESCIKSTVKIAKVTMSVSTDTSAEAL
Sequence of Cannabinoid receptor 1 (Rattus norvegicus, UniProt P20272) (P20272 whole entry): as the sequence (P47746 whole entry) above, with D95E counted along it

For the compound `CCCCCCC(C)(C)c1cc(OC)c([C@H]2C=C(CO)[C@H]3C[C@@H]2C3(C)C)c(OC)c1`, the pKi on Cannabinoid receptor 1 [1] was below 5.00.
For `C=C(C)[C@@H]1CCC(C)=C[C@H]1c1ccc(CCCCC)cc1O`, the pIC50 at Cannabinoid receptor 1 [2] was 7.51.
For the compound `C=C(C)[C@@H]1CCC(C)=C[C@H]1c1c(C)cc(O)cc1O`, the pIC50 in the data set on Neutrophil is 7.48.
As for `C=C(C)[C@@H]1CCC(C)=C[C@H]1c1c(O)cc(CCCCC)cc1O` [CANNABIDIOL], the Activity is given as 21% in the data set with Fibroblast [3]; 77% in the data set with Fibroblast [4]; 21% in data set [5]; 17% in data set [6]; 50% with Mus musculus [7]; 50% in the data set on Mus musculus [8]. In addition, the Activity in the data set on Mus musculus [9] was 50%; in the data set with Mus musculus [10] it was 50%; in the data set on Mus musculus [11], 50%; in data set [12], above 50%; in data set [13] it was above 50%; in [14] it was above 50%. Moreover, the Activity in the data set with HEK293 was determined as 50%. The pEC50 in data set [15] was 5.43. The compound also gave a negative logarithm of the IC50 (pIC50) in the data set on Neutrophil of 9.35.

(Values after ChEMBL document CHEMBL3399934, “Cannabidiol (CBD) and its analogs: a review of their effects on inflammation” (Bioorg Med Chem, 2015).)
